Columns and labels:
Format in all cases: binding
[1] = biological target: T1, nNOS-PDZ (Homo sapiens, UniProt P29475); assay: FP saturation and inhibition assay, Cy5-Nav1.4 probe / nNOS-PDZ; conditions: concentrations reaching 500–1800 μM; Cy5-Nav1.4 50 nM; [nNOS-PDZ] = 20 μM (ZL006) or 10 μM (IC87201)
T1 construct: nNOS-PDZ (12–130, human); made in house; host or cells: E. coli
Experimental: (§1) Fluorescent probes were made by attaching fluorophores (Cy5) to C-terminal 10- or 11-mer (C10 or C11) peptide ligands representing canonical and natural occurring protein partners (Supplementary Table S1). […] (Fig. 2).
(b) Cy5-GluN2B as probe (50 nM), [PDZ2] = 6 μM. (c) Cy5-CRIPT as probe (50 nM), [PDZ3] = 5 μM. […] Error bars indicate SEM based on three individual measurements.
nNOS-PDZ (12–130, human) and α-Syntrophin-PDZ (82–200, human), both comprising an N-terminal His-tag/FXa-site sequence ([…]), were likewise expressed in E. coli and purified by HisTrap chromatography followed by gel-filtration as described in details previously. To make the TAMRA-labelled nNOS-PDZ, mutant nNOS-PDZ (V36C) protein was generated by standard site-directed mutagenesis and characterized as described previously. Here, dithiothreitol was added to the pooled protein sample after HisTrap purification to a final concentration of 10 mM to eliminate unwanted disulfide bonds, and a final gel-filtration (50 mM NaPi buffer pH 7.5) was performed to remove impurities and salts. Next, purified nNOS-PDZ (V36C) was desalted by dialysis into 50 mM (NH4)2CO3 buffer (SnakeSkin dialysis tubing 3.5 MWCO, Pierce, Rockford, IL, USA) and subsequently lyophilized. nNOS-PDZ (V36C) was redissolved in 500 μL buffer (6 M GnHCl, 200 mM NaPi) and solid TAMRA-maleimide (5-tetramethylrhodamine-C2-maleimide; Anaspec, Fremont, CA, USA) was added in excess (cf. ESI-LC-MS). The coupling reaction was incubated at room temperature for 16 hours and TAMRA-labelled nNOS-PDZ was purified by preparative HPLC, and refolded in assay buffer. Functional validation was performed by FP[19], and all final proteins were characterized for purity and identity by SDS-PAGE and ESI-LC-MS.
Incubation time was 10–15 minutes (room temperature), and the assay was performed in a 1 × TBS buffer (150 mM NaCl, 10 mM Tris, pH 7.4) using black flat-bottom 384-well plates (Corning Life Sciences, NY) and a Safire2 plate-reader (Tecan, Männedorf, Switzerland). G-factor was adjusted so that probe alone (i.e. without protein interacting-partner) would give an FP value of 20 mP. This background value was subsequently subtracted from the raw data before plotting and analyzing the data. TAMRA- and Cy5-probes were measured at excitation/emission values of 530/585 nm (bandwidth = 20 nm) and 635/670 nm (bandwidth = 15 nm), respectively. […]
(§2) FP values were fitted to the general equation: Y = Bottom + (Top–Bottom)/[1 + (10^(X-logIC50)*HillSlope)], where X is the logarithmic value of peptide/compound concentration, and Y is the experimental FP values. Competitive inhibition constants, Ki values, were calculated from the IC50 values to quantify affinities between test substance and protein[42]. […]

[2] = biological target: T2, PDZ1 of PSD-95 (Homo sapiens, UniProt P78352); assay: FP inhibition assay, Cy5-GluN2B probe / PDZ1; conditions: concentrations reaching 500–1800 μM; Cy5-GluN2B 50 nM; [PDZ1] = 10 μM (ZL006) or 18 μM (IC87201)
T2 construct: PDZ1 (61-151); made in house; host or cells: E. coli BL21-DE3 pLysS
Experimental: as §1
(b) Cy5-GluN2B as probe (50 nM), [PDZ2] = 6 μM. (c) Cy5-CRIPT as probe (50 nM), [PDZ3] = 5 μM. […] Error bars indicate SEM based on three individual measurements. […]
(§3) Incubation time was 10–15 minutes (room temperature), and the assay was performed in a 1 × TBS buffer (150 mM NaCl, 10 mM Tris, pH 7.4) using black flat-bottom 384-well plates (Corning Life Sciences, NY) and a Safire2 plate-reader (Tecan, Männedorf, Switzerland). […] TAMRA- and Cy5-probes were measured at excitation/emission values of 530/585 nm (bandwidth = 20 nm) and 635/670 nm (bandwidth = 15 nm), respectively. […]
as §2

[3] = biological target: T3, TAMRA-nNOS/PSD-95-PDZ2 interaction (Homo sapiens, UniProt P29475+P78352, V36C); assay: 'direct' FP assay, TAMRA-nNOS / PDZ2 (saturation and inhibition)
T3 construct: nNOS-PDZ (12–130, human); PDZ2 (155-249); made in house; host or cells: E. coli
Experimental: The assay was established by creating a fluorescent version of nNOS-PDZ by TAMRA-labelling nNOS-PDZ via an introduced cysteine residue (V36C). […] However, up to 7.3 μM no inhibition of TAMRA-nNOS/PSD-95-PDZ interactions could be measured (data not shown).
(a) Saturation curves between TAMRA-nNOS (5 nM) and PDZ1, PDZ2, and PDZ1-2 of PSD-95. […] Error bars indicate SEM based on three individual measurements.
nNOS-PDZ (12–130, human) and α-Syntrophin-PDZ (82–200, human), both comprising an N-terminal His-tag/FXa-site sequence ([…]), were likewise expressed in E. coli and purified by HisTrap chromatography followed by gel-filtration as described in details previously. To make the TAMRA-labelled nNOS-PDZ, mutant nNOS-PDZ (V36C) protein was generated by standard site-directed mutagenesis and characterized as described previously. […]
as §3

T1 sequence (P29475 12-130): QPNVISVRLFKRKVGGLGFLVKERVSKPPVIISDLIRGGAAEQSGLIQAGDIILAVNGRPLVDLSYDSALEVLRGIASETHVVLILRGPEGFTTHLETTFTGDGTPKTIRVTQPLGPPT

| Compound | inhibition of probe-PDZ interaction (nNOS-PDZ) [1] | inhibition of probe-PDZ interaction (PDZ1) [2] | inhibition of TAMRA-nNOS/PDZ2 interaction ([3]; up to 7.3 μM (fluorescence artefacts above), data not shown) | inhibition of TAMRA-nNOS/PDZ2 interaction ([3]; tested at up to 1200 μM, TAMRA-nNOS 5 nM, PDZ2 2.5 μM) |
| --- | --- | --- | --- | --- |
| Oc1c(Cl)cc(Cl)cc1CNc1ccc2[nH]nnc2c1 [IC87201, 2-((1H-Benzo[d][1–3]triazol-5-ylamino)methyl)-4-6-dichlorophenol] | did not inhibit | did not inhibit | no inhibition | – |
| O=C(O)c1ccc(NCc2cc(Cl)cc(Cl)c2O)cc1O [ZL006, 4-((3,5-Dichloro-2-hydroxybenzyl)amino)-2-hydroxybenzoic acid] | did not inhibit | did not inhibit | – | no activity |

Source: paper PMC4503980 (Scientific Reports, 2015)
